Data as given in patent US9708314B2, “Heterocyclic amide compound” (NISSAN CHEMICAL INDUSTRIES, LTD., priority 2013, dated 2017).

Experiments:
Assay type in all cases: in vivo
Apera spica-venti. = test: Test Example 4: herbicidal effect by application to foliage (diluvial soil, plastic box); details: for L: herbicidal effect on Apera spica-venti.: application to foliage, application herbicide amount 320 g/ha
How it was run: (§1)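 Greenhouse plants (25° C. to 30° C., 14 d, diluvial soil) receive a foliar spray of water-diluted emulsifiable formulation at defined g/ha. Grading after 3 weeks uses a six-step herbicidal-ratio scale, with 4 covering 70% to <90% and 1 covering 5% to <20%.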

Abutilon theophrasti = test: as above; details: for M: herbicidal effect on Abutilon theophrasti: application to foliage, application herbicide amount 320 g/ha
How it was run: as §1

Digitaria ciliaris = test: as above; details: for F: herbicidal effect on Digitaria ciliaris: application to foliage, application herbicide amount 320 g/ha
How it was run: as §1

Chenopodium album = test: as above; details: for O: herbicidal effect on Chenopodium album: application to foliage, application herbicide amount 320 g/ha
How it was run: as §1

Amaranthus retroflexus = test: as above; details: for N: herbicidal effect on Amaranthus retroflexus: application to foliage, application herbicide amount 320 g/ha
How it was run: as §1

Setaria viridis = test: as above; details: for G: herbicidal effect on Setaria viridis: application to foliage, application herbicide amount 320 g/ha
How it was run: as §1

Galium spurium = test: as above; details: for Q: herbicidal effect on Galium spurium: application to foliage, application herbicide amount 320 g/ha
How it was run: as §1

Lolium multiflorum Lam. = test: as above; details: for K: herbicidal effect on Lolium multiflorum Lam.: application to foliage, application herbicide amount 320 g/ha
How it was run: as §1

Avena fatua = test: as above; details: for I: herbicidal effect on Avena fatua: application to foliage, application herbicide amount 320 g/ha
How it was run: as §1

Veronica persica = test: as above; details: for R: herbicidal effect on Veronica persica: application to foliage, application herbicide amount 320 g/ha
How it was run: as §1

[1] = tested on: Echinochloa crus-galli var. crus-galli; test: as above; details: for H: herbicidal effect on Echinochloa crus-galli var. crus-galli: application to foliage, application herbicide amount 320 g/ha
How it was run: as §1

Alopecurus myosuroides = test: as above; details: for J: herbicidal effect on Alopecurus myosuroides: application to foliage, application herbicide amount 320 g/ha
How it was run: as §1

Zea mays = test: Test Example 4: effect on crop by application to foliage (diluvial soil, plastic box); details: for c: effect on crop, Zea mays: application to foliage, application herbicide amount 320 g/ha
How it was run: as §1

Brassica campestris L. = test: as above; details: for g: effect on crop, Brassica campestris L.: application to foliage, application herbicide amount 320 g/ha
How it was run: as §1

Glycine max = test: as above; details: for d: effect on crop, Glycine max: application to foliage, application herbicide amount 320 g/ha
How it was run: as §1

[2] = tested on: Beta vulgaris ssp. vulgaris; test: as above; details: for f: effect on crop, Beta vulgaris ssp. vulgaris: application to foliage, application herbicide amount 320 g/ha
How it was run: as §1

Triticum aestivum = test: as above; details: for e: effect on crop, Triticum aestivum: application to foliage, application herbicide amount 320 g/ha
How it was run: as §1

[3] = tested on: directly sowed Oryza sativa; test: as above; details: for b: effect on crop, directly sowed Oryza sativa: application to foliage, application herbicide amount 320 g/ha
How it was run: as §1

Monochoria vaginalis = test: Test Example 1: herbicidal activity, application before weed generation in submerged conditions; details: Application herbicide amount 320 g/ha; Seventeenth Table
How it was run: (§2)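 Water-diluted emulsion formulation is applied onto flood water (4 cm deep) covering alluvial soil on the day weed seeds are sown, after transplanting 2.5 leaf stage rice. Rates are expressed per hectare. Injury or control is graded 0–5 three weeks later.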

Scirpus juncoides = test: as above; details: Application herbicide amount 320 g/ha; Seventeenth Table
How it was run: as §2

Stellaria media = test: Test Example 4: herbicidal effect by application to foliage (diluvial soil, plastic box); details: application to foliage, application herbicide amount 320 g/ha
How it was run: as §1

[4] = tested on: Echinochloa oryzacola Vasing.; test: Test Example 1: herbicidal activity, application before weed generation in submerged conditions; details: Application herbicide amount 320 g/ha; Seventeenth Table
How it was run: as §2

Structure (SMILES) | L: herbicidal effect on Apera spica-venti. (Apera spica-venti.) | M: herbicidal effect on Abutilon theophrasti (Abutilon theophrasti) | F: herbicidal effect on Digitaria ciliaris (Digitaria ciliaris) | O: herbicidal effect on Chenopodium album (Chenopodium album) | N: herbicidal effect on Amaranthus retroflexus (Amaranthus retroflexus) | G: herbicidal effect on Setaria viridis (Setaria viridis) | Q: herbicidal effect on Galium spurium (Galium spurium) | K: herbicidal effect on Lolium multiflorum Lam. (Lolium multiflorum Lam.) | I: herbicidal effect on Avena fatua (Avena fatua) | R: herbicidal effect on Veronica persica (Veronica persica) | H: herbicidal effect on Echinochloa crus-galli var. crus-galli [1] | J: herbicidal effect on Alopecurus myosuroides (Alopecurus myosuroides) | c: effect on crop, Zea mays (Zea mays) | g: effect on crop, Brassica campestris L. (Brassica campestris L.) | d: effect on crop, Glycine max (Glycine max) | f: effect on crop, Beta vulgaris ssp. vulgaris [2] | e: effect on crop, Triticum aestivum (Triticum aestivum) | b: effect on crop, directly sowed Oryza sativa [3] | C: Monochoria vaginalis (herbicidal effect grade) (Monochoria vaginalis) | B: Scirpus juncoides (herbicidal effect grade) (Scirpus juncoides) | further results
O=C(Nc1nnco1)c1ccc(C(F)(F)F)n2c(SC3CCCC3)nnc12 [1-155] | 0 (Herbicidal ratio of 5% or less (almost no effect)) | 3 (Herbicidal ratio of 40% or more and less than 70%) | 3 (Herbicidal ratio of 40% or more and less than 70%) | 5 (Herbicidal ratio of 90% or more (almost completely withered)) | 3 (Herbicidal ratio of 40% or more and less than 70%) | 1 (Herbicidal ratio of 5% or more and less than 20%) | 0 (Herbicidal ratio of 5% or less (almost no effect)) | 0 (Herbicidal ratio of 5% or less (almost no effect)) | 0 (Herbicidal ratio of 5% or less (almost no effect)) | 2 (Herbicidal ratio of 20% or more and less than 40%) | 3 (Herbicidal ratio of 40% or more and less than 70%) | 0 (Herbicidal ratio of 5% or less (almost no effect)) | 0 (Herbicidal ratio of 5% or less (almost no effect)) | 0 (Herbicidal ratio of 5% or less (almost no effect)) | 3 (Herbicidal ratio of 40% or more and less than 70%) | 5 (Herbicidal ratio of 90% or more (almost completely withered)) | 0 (Herbicidal ratio of 5% or less (almost no effect)) | 0 (Herbicidal ratio of 5% or less (almost no effect)) | 3 (Herbicidal ratio of 40% or more and less than 70%) | 4 (Herbicidal ratio of 70% or more and less than 90%) | 
Cc1nnc(NC(=O)c2ccc(C(F)(F)F)n3c(SCc4ccc(Cl)nc4)nnc23)o1 [1-156] | 2 (Herbicidal ratio of 20% or more and less than 40%) | 3 (Herbicidal ratio of 40% or more and less than 70%) | 2 (Herbicidal ratio of 20% or more and less than 40%) | 5 (Herbicidal ratio of 90% or more (almost completely withered)) | 3 (Herbicidal ratio of 40% or more and less than 70%) | 1 (Herbicidal ratio of 5% or more and less than 20%) | 1 (Herbicidal ratio of 5% or more and less than 20%) | 1 (Herbicidal ratio of 5% or more and less than 20%) | 1 (Herbicidal ratio of 5% or more and less than 20%) | 3 (Herbicidal ratio of 40% or more and less than 70%) | 4 (Herbicidal ratio of 70% or more and less than 90%) | 1 (Herbicidal ratio of 5% or more and less than 20%) | 0 (Herbicidal ratio of 5% or less (almost no effect)) | 0 (Herbicidal ratio of 5% or less (almost no effect)) | 3 (Herbicidal ratio of 40% or more and less than 70%) | 3 (Herbicidal ratio of 40% or more and less than 70%) | 1 (Herbicidal ratio of 5% or more and less than 20%) | 0 (Herbicidal ratio of 5% or less (almost no effect)) | 0 (Herbicidal ratio of 5% or less (almost no effect)) | 2 (Herbicidal ratio of 20% or more and less than 40%) | P: herbicidal effect on Stellaria media (Stellaria media): 4 (Herbicidal ratio of 70% or more and less than 90%)
O=C(Nc1nnco1)c1ccc(C(F)(F)F)n2c(SCc3ccc(Cl)nc3)nnc12 [1-157] | 1 (Herbicidal ratio of 5% or more and less than 20%) | 3 (Herbicidal ratio of 40% or more and less than 70%) | 3 (Herbicidal ratio of 40% or more and less than 70%) | 5 (Herbicidal ratio of 90% or more (almost completely withered)) | 3 (Herbicidal ratio of 40% or more and less than 70%) | 1 (Herbicidal ratio of 5% or more and less than 20%) | 1 (Herbicidal ratio of 5% or more and less than 20%) | 1 (Herbicidal ratio of 5% or more and less than 20%) | 1 (Herbicidal ratio of 5% or more and less than 20%) | 2 (Herbicidal ratio of 20% or more and less than 40%) | 3 (Herbicidal ratio of 40% or more and less than 70%) | 1 (Herbicidal ratio of 5% or more and less than 20%) | 0 (Herbicidal ratio of 5% or less (almost no effect)) | 2 (Herbicidal ratio of 20% or more and less than 40%) | 3 (Herbicidal ratio of 40% or more and less than 70%) | 4 (Herbicidal ratio of 70% or more and less than 90%) | 1 (Herbicidal ratio of 5% or more and less than 20%) | 0 (Herbicidal ratio of 5% or less (almost no effect)) | 2 (Herbicidal ratio of 20% or more and less than 40%) | 3 (Herbicidal ratio of 40% or more and less than 70%) | 
CC(C)c1nnc2c(C(=O)Nc3nnnn3C)ccc(C(F)(F)C(F)(F)F)n12 [2-049] |  |  |  |  |  |  |  |  |  |  |  |  |  |  |  |  |  |  | 4 (Herbicidal ratio of 70% or more and less than 90%) | 5 (Herbicidal ratio of 90% or more (almost completely withered)) | L (Apera spica-venti.) herbicidal effect grade (Apera spica-venti.; foliage application, 320 g/ha): 4 (Herbicidal ratio of 70% or more and less than 90%); M (Abutilon theophrasti) herbicidal effect grade (Abutilon theophrasti; foliage application, 320 g/ha): 4 (Herbicidal ratio of 70% or more and less than 90%); F (Digitaria ciliaris) herbicidal effect grade (Digitaria ciliaris; foliage application, 320 g/ha): 5 (Herbicidal ratio of 90% or more (almost completely withered)); O (Chenopodium album) herbicidal effect grade (Chenopodium album; foliage application, 320 g/ha): 5 (Herbicidal ratio of 90% or more (almost completely withered)); N (Amaranthus retroflexus) herbicidal effect grade (Amaranthus retroflexus; foliage application, 320 g/ha): 3 (Herbicidal ratio of 40% or more and less than 70%); G (Setaria viridis) herbicidal effect grade (Setaria viridis; foliage application, 320 g/ha): 5 (Herbicidal ratio of 90% or more (almost completely withered)); Q (Galium spurium) herbicidal effect grade (Galium spurium; foliage application, 320 g/ha): 3 (Herbicidal ratio of 40% or more and less than 70%); K (Lolium multiflorum Lam.) herbicidal effect grade (Lolium multiflorum Lam.; foliage application, 320 g/ha): 3 (Herbicidal ratio of 40% or more and less than 70%); I (Avena fatua) herbicidal effect grade (Avena fatua; foliage application, 320 g/ha): 3 (Herbicidal ratio of 40% or more and less than 70%); R (Veronica persica) herbicidal effect grade (Veronica persica; foliage application, 320 g/ha): 4 (Herbicidal ratio of 70% or more and less than 90%); H (Echinochloa crus-galli var. crus-galli) herbicidal effect grade ([1]; foliage application, 320 g/ha): 5 (Herbicidal ratio of 90% or more (almost completely withered)); J (Alopecurus myosuroides) herbicidal effect grade (Alopecurus myosuroides; foliage application, 320 g/ha): 1 (Herbicidal ratio of 5% or more and less than 20%); b (Zea mays) effect on crop grade (Zea mays; foliage application, 320 g/ha): 2 (Herbicidal ratio of 20% or more and less than 40%); g (Brassica campestris L.) effect on crop grade (Brassica campestris L.; foliage application, 320 g/ha): 3 (Herbicidal ratio of 40% or more and less than 70%); c (Glycine max) effect on crop grade (Glycine max; foliage application, 320 g/ha): 1 (Herbicidal ratio of 5% or more and less than 20%); f (Beta vulgaris ssp. vulgaris) effect on crop grade ([2]; foliage application, 320 g/ha): 4 (Herbicidal ratio of 70% or more and less than 90%); e (Triticum aestivum) effect on crop grade (Triticum aestivum; foliage application, 320 g/ha): 0 (Herbicidal ratio of 5% or less (almost no effect)); d (directly sowed Oryza sativa) effect on crop grade ([3]; foliage application, 320 g/ha): 4 (Herbicidal ratio of 70% or more and less than 90%); A: Echinochloa oryzicola Vasing. (herbicidal effect grade) [4]: 5 (Herbicidal ratio of 90% or more (almost completely withered))
